Experimental data: ChEMBL document CHEMBL1157939, “Bromophycolides C-I from the Fijian red alga Callophycus serratus” (J Nat Prod, 2006)

Legend:
Candida albicans = test: Antifungal activity against amphotericin B-resistant Candida albicans after 12 to 15 hrs by alamar blue assay; assay type: functional, organism-based
DU-4475 = test: Antineoplastic activity against human DU4475 cells after 72 hrs by MTS reduction assay; assay type: functional, cell-based; details: DU-4475, 72 h

| SMILES | IC50 (Candida albicans) [µM] | IC50 (DU-4475) [µM] |
| --- | --- | --- |
| C=C1CC[C@H](Br)[C@@]2(C)CC[C@@H]3O[C@@]3(C)CC[C@@H](C(C)(C)O)OC(=O)c3ccc(O)c(c3)C[C@H]12 [BROMOPHYCOLIDE F] | 240 | – |
| C=C1CC[C@H](Br)[C@@]2(C)CC[C@@H](Br)[C@@](C)(O)CC[C@@H](Br)C(C)(C)OC(=O)c3ccc(O)c(c3)C[C@H]12 [BROMOPHYCOLIDE H] | – | 3.88 |
| C=C1CC[C@H](Br)[C@@]2(C)CC[C@@H](Br)[C@@](C)(O)CC[C@H](O)C(C)(C)OC(=O)c3ccc(O)c(c3)C[C@H]12 [BROMOPHYCOLIDE I] | 208 | – |
